Source: patent US11976061B2, “Preparation of benzimidazolone derivatives as novel diacylglyceride O-acyltransferase 2 inhibitors” (Merck Sharp & Dohme LLC, priority 2020, dated 2024)
Like-named read-outs stand apart in the source and are kept apart here.

Target: T1, human DGAT2 (hDGAT2) (Homo sapiens, UniProt Q96PD7)
T1 construct: made in house; host or cells: Sf-9 insect cells (baculovirus), membrane fraction
T1 sequence (Q96PD7 1-388): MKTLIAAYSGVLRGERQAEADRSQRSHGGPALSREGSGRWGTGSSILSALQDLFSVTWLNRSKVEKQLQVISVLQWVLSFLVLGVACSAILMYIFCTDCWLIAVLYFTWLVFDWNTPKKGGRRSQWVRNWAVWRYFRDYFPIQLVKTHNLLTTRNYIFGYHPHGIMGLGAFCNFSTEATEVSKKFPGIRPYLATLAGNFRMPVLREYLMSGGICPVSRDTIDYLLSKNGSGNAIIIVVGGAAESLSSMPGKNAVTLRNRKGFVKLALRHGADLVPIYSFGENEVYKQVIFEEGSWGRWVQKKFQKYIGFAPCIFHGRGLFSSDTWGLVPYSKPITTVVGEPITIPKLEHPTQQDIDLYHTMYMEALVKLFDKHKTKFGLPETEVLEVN
Experiment: DGAT2 Enzymatic Activity Assay
Format: biochemical
Details: membrane prep of Sf-9 cells expressing hDGAT2, 25 μM diolein, 5 μM 13C oleoyl-CoA, 13C18-triolein by LC/MS/MS
Method in brief: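 Membranes from Sf-9 cells expressing untagged human DGAT2 (8 ng/μL) incubated at rt in 100 mM Tris·Cl pH 7.0, 20 mM MgCl2, 5% ethanol with 25 μM diolein and 5 μM 13C oleoyl-CoA. 13C18-triolein product quantified by LC/MS/MS against 13C21-triolein internal standard; IC50 by 4-parameter fit.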

IC50 (read-out: DGAT2 IC50) | IC50 (read-out: Human DGAT2 IC50) | SMILES
0.0032 µM | – | CC(C)n1c(=O)n(-c2cc(OC(F)(F)C(F)F)ccn2)c2ccc(C(=O)NC3(C)CCS(=O)(=O)CC3)cc21 [Example 120, 3-isopropyl-N-(4-methyl-1,1-dioxidotetrahydro-2H-thiopyran-4-yl)-2-oxo-1-(4-(1,1,2,2-tetrafluoroethoxy)pyridin-2-yl)-2,3-dihydro-1H-benzo[d]imidazole-5-carboxamide]
– | 0.034 µM | CC(C)n1c(=O)n(-c2cc(OC(F)F)ncc2F)c2ccc(C(=O)NC3(C)CCS(=O)(=O)CC3)cc21 [Example 5, 1-(2-(Difluoromethoxy)-5-fluoropyridin-4-yl)-3-isopropyl-N-(4-methyl-1,1-dioxidotetrahydro-2H-thiopyran-4-yl)-2-oxo-2,3-dihydro-1H-benzo[d]imidazole-5-carboxamide]
0.092 µM | – | CC(C)n1c(=O)n(-c2cc(OCC(F)F)ccn2)c2cc(F)c(C(=O)NC3(C)CCS(=O)(=O)CC3)cc21 [Example 121, 1-(4-(2,2-difluoroethoxy)pyridin-2-yl)-6-fluoro-3-isopropyl-N-(4-methyl-1,1-dioxidotetrahydro-2H-thiopyran-4-yl)-2-oxo-2,3-dihydro-1H-benzo[d]imidazole-5-carboxamide]
1.83 µM | – | CC(C)n1c(=O)n(-c2cccc(C(F)(F)F)c2)c2ccc(C(=O)NC3(C)CCS(=O)(=O)CC3)cc21 [Example 53, 3-isopropyl-N-(4-methyl-1,1-dioxidotetrahydro-2H-thiopyran-4-yl)-2-oxo-1-(3-(trifluoromethyl)phenyl)-2,3-dihydro-1H-benzo[d]imidazole-5-carboxamide]
0.0055 µM | – | CC(C)n1c(=O)n(-c2cc(OC(F)(F)C(F)F)ccn2)c2cc(F)c(C(=O)NC3(C)CCS(=O)(=O)CC3)cc21 [Example 118, 6-fluoro-3-isopropyl-N-(4-methyl-1,1-dioxidotetrahydro-2H-thiopyran-4-yl)-2-oxo-1-(4-(1,1,2,2-tetrafluoroethoxy)pyridin-2-yl)-2,3-dihydro-1H-benzo[d]imidazole-5-carboxamide]
0.0056 µM | – | CC(n1c(=O)n(-c2cccc(OC(F)(F)C(F)F)c2)c2ccc(C(=O)NC3(C)CCS(=O)(=O)CC3)cc21)C(C)(C)O (single isomer, unassigned) [Example 77a, 3-(3-hydroxy-3-methylbutan-2-yl)-N-(4-methyl-1,1-dioxidotetrahydro-2H-thiopyran-4-yl)-2-oxo-1-(3-(1,1,2,2-tetrafluoroethoxy)phenyl)-2,3-dihydro-1H-benzo[d]imidazole-5-carboxamide]
0.0018 µM | – | CC(n1c(=O)n(-c2cccc(OCC(F)F)c2)c2ccc(C(=O)NC3(C)CCS(=O)(=O)CC3)cc21)C(C)(C)O (single isomer, unassigned) [Example 68b, 1-(3-(2,2-difluoroethoxy)phenyl)-3-(3-hydroxy-3-methylbutan-2-yl)-N-(4-methyl-1,1-dioxidotetrahydro-2H-thiopyran-4-yl)-2-oxo-2,3-dihydro-1H-benzo[d]imidazole-5-carboxamide]
0.08 µM | – | CC(n1c(=O)n(-c2cccc(OC(F)(F)C(F)F)c2)c2ccc(C(=O)NC3(C)CS(=O)(=O)C3)cc21)C(C)(C)O (single isomer, unassigned) [Example 76a, 3-(3-hydroxy-3-methylbutan-2-yl)-N-(3-methyl-1,1-dioxidothietan-3-yl)-2-oxo-1-(3-(1,1,2,2-tetrafluoroethoxy)phenyl)-2,3-dihydro-1H-benzo[d]imidazole-5-carboxamide]
– | 0.15 µM | CC(C)n1c(=O)n(-c2cncc(OC(F)F)c2)c2ccc(C(=O)NC3(C)CS(=O)(=O)C3)cc21 [Example 83, 1-(5-(Difluoromethoxy)pyridin-3-yl)-3-isopropyl-N-(3-methyl-1,1-dioxidothietan-3-yl)-2-oxo-2,3-dihydro-1H-benzo[d]imidazole-5-carboxamide]
0.405 µM | – | CC1(NC(=O)c2ccc3c(c2)n(CCC(F)(F)F)c(=O)n3-c2cccc(OC(F)F)c2)CCS(=O)(=O)CC1 [Example 42, 1-(3-(Difluoromethoxy)phenyl)-N-(4-methyl-1,1-dioxidotetrahydro-2H-thiopyran-4-yl)-2-oxo-3-(3,3,3-trifluoropropyl)-2,3-dihydro-1H-benzo[d]imidazole-5-carboxamide]
0.0016 µM | – | CC(n1c(=O)n(-c2cccc(OC(F)F)c2)c2ccc(C(=O)NC3(C)CCS(=O)(=O)CC3)cc21)C(C)(C)O (single isomer, unassigned) [Example 67a, 1-(3-(difluoromethoxy)phenyl)-3-(3-hydroxy-3-methylbutan-2-yl)-N-(4-methyl-1,1-dioxidotetrahydro-2H-thiopyran-4-yl)-2-oxo-2,3-dihydro-1H-benzo[d]imidazole-5-carboxamide]

The remaining lines, values behind:

SMILES | IC50 (read-out: DGAT2 IC50) | IC50 (read-out: Human DGAT2 IC50)
CC(n1c(=O)n(-c2cc(OCC(F)F)ncc2F)c2cc(F)c(C(=O)NC3(C)CCS(=O)(=O)CC3)cc21)C(C)(C)O (single isomer, unassigned) [Example 74a, 1-(2-(2,2-difluoroethoxy)-5-fluoropyridin-4-yl)-6-fluoro-3-(3-hydroxy-3-methylbutan-2-yl)-N-(4-methyl-1,1-dioxidotetrahydro-2H-thiopyran-4-yl)-2-oxo-2,3-dihydro-1H-benzo[d]imidazole-5-carboxamide] | 0.0061 µM | –
CCOc1cc(-n2c(=O)n(C(C)C(C)(C)O)c3cc(C(=O)NC4(C)CCS(=O)(=O)CC4)ccc32)c(F)cn1 (single isomer, unassigned) [Example 69a, 1-(2-ethoxy-5-fluoropyridin-4-yl)-3-(3-hydroxy-3-methylbutan-2-yl)-N-(4-methyl-1,1-dioxidotetrahydro-2H-thiopyran-4-yl)-2-oxo-2,3-dihydro-1H-benzo[d]imidazole-5-carboxamide] | 0.0097 µM | –
CCOc1cccc(-n2c(=O)n(C(C)C)c3cc(C(=O)NC4(C)CS(=O)(=O)C4)ccc32)c1 [Example 9, 1-(3-ethoxyphenyl)-3-isopropyl-N-(3-methyl-1,1-dioxo-thietan-3-yl)-2-oxo-benzimidazole-5-carboxamide] | – | 0.0043 µM
CCn1c(=O)n(-c2cccc(OC(F)F)c2)c2ccc(C(=O)NC3(C)CCS(=O)(=O)CC3)cc21 [Example 39, 1-(3-(Difluoromethoxy)phenyl)-3-ethyl-N-(4-methyl-1,1-dioxidotetrahydro-2H-thiopyran-4-yl)-2-oxo-2,3-dihydro-1H-benzo[d]imidazole-5-carboxamide] | 0.109 µM | –
CCOc1cccc(-n2c(=O)n(C(C)C)c3cc(C(=O)NC4(C)CS(=O)(=O)C4)cnc32)c1 [Example 96, 3-(3-ethoxyphenyl)-1-isopropyl-N-(3-methyl-1,1-dioxo-thietan-3-yl)-2-oxo-imidazo[4,5-b]pyridine-6-carboxamide] | 0.093 µM | –
CC(C)n1c(=O)n(-c2cccc(OCC(F)F)c2)c2ccc(C(=O)NC3(C)CS(=O)(=O)C3)cc21 [Example 8, 1-[3-(2,2-difluoroethoxy)phenyl]-3-isopropyl-N-(3-methyl-1,1-dioxo-thietan-3-yl)-2-oxo-benzimidazole-5-carboxamide] | – | 0.043 µM
CCOc1cc(-n2c(=O)n(C(C)C)c3cc(C(=O)NC4(C)CS(=O)(=O)C4)ccc32)c(F)cn1 [Example 16, 1-(2-ethoxy-5-fluoropyridin-4-yl)-3-isopropyl-N-(3-methyl-1,1-dioxidothietan-3-yl)-2-oxo-2,3-dihydro-1H-benzo[d]imidazole-5-carboxamide] | – | 0.032 µM
CCOc1cc(-n2c(=O)n(C(C)C(C)(C)O)c3cc(C(=O)NC4(C)CS(=O)(=O)C4)ccc32)c(F)cn1 (single isomer, unassigned) [Example 78a, 1-(2-ethoxy-5-fluoropyridin-4-yl)-3-(3-hydroxy-3-methylbutan-2-yl)-N-(3-methyl-1,1-dioxidothietan-3-yl)-2-oxo-2,3-dihydro-1H-benzo[d]imidazole-5-carboxamide] | 0.123 µM | –
CC(C)[C@@H](CO)NC(=O)c1ccc2c(c1)n(C(C)C)c(=O)n2-c1cccc(OC(F)F)c1 [Example 34, 1-[3-(difluoromethoxy)phenyl]-N-[(1S)-1-(hydroxymethyl)-2-methyl-propyl]-3-isopropyl-2-oxo-benzimidazole-5-carboxamide] | 0.062 µM | –
CC1(NC(=O)c2ccc3c(c2)n(C2CCOCC2)c(=O)n3-c2cccc(OC(F)F)c2)CS(=O)(=O)C1 [Example 36, 1-(3-(difluoromethoxy)phenyl)-N-(3-methyl-1,1-dioxidothietan-3-yl)-2-oxo-3-(tetrahydro-2H-pyran-4-yl)-2,3-dihydro-1H-benzo[d]imidazole-5-carboxamide] | 0.0194 µM | –
CC(n1c(=O)n(-c2cc(OC(F)F)ccc2F)c2ccc(C(=O)NC3(C)CS(=O)(=O)C3)cc21)C(C)(C)O (single isomer, unassigned) [EX-65b, 1-(5-(difluoromethoxy)-2-fluorophenyl)-3-(3-hydroxy-3-methylbutan-2-yl)-N-(3-methyl-1,1-dioxidothietan-3-yl)-2-oxo-2,3-dihydro-1H-benzo[d]imidazole-5-carboxamide] | – | 0.0007 µM
CC(C)n1c(=O)n(-c2cccc(OC(F)F)c2)c2ccc(C(=O)N[C@H]3CCC[C@@H]3O)cc21 [Example 28, 1-[3-(difluoromethoxy)phenyl]-N-[(1S,2S)-2-hydroxycyclopentyl]-3-isopropyl-2-oxo-benzimidazole-5-carboxamide] | 0.779 µM | –
